Test results: US20040203117A1, “Method of expressing genetically modified protein carrying sugar chain having sialic acid added thereto in insect cells” (priority 2001, published 2004)

How the values were obtained:
TN5 cells = settings: 2-ADN added in a concentration of 5 mM
Method: TN5 cells were cultured in EX-CELL401 medium (manufactured by JRH Bioscience) containing 0 to 5 mM of 2-acetamide-1,2-dideoxynojirimycin (2-ADN) (Tront Research Chemicals Inc.) at 28° C. for 3 days. Subsequently, TN5 (TN5B1-4) cells were infected with the recombinant baculovirus prepared as described above at an moi of 1.0 and subjected to a further culturing in EX-CELL401 medium (manufactured by JRH Bioscience) at 28° C. for 3 days. Thereafter, the supernatant containing recombinant boIFN-τ (rboIFN-τ) was recovered.

[1] = test system: N-acetylglucosaminidase (GlcNAcase) of TN5 cells; experiment: GlcNAcase inhibition assay of TN5 cells (p-nitrophenol release from p-nitrophenyl β-D-acetylglucosamide); assay type: biochemical, insect (TN5 cells)
Method: The GlcNAcase inhibition assay of TN5 cells was performed as follows.
TN5 cells (2.0×10^7 cells) were washed once with PBS and rinsed with 1 ml of PBS containing 1% Triton-X 100. After centrifugation at 1,000×g for 5 minutes, the supernatant was used as an enzyme source. Fifty μl of the supernatant was mixed with 50 μl of 2-ADN to make a final 2-ADN concentration of 0 to 5 mM. To the solution mixture, 200 μl of a substrate solution (1 mg/ml p-nitrophenyl β-D-acetylglucosamide in 0.2 M citrate/phosphate buffer) was added. The resultant solution was incubated at 37° C. for one hour. The reaction was quenched by adding 1 M Na2CO3, the absorption of released p-nitrophenol was measured at 420 nm. […] Lanes 1 to 6 in the figures show the results obtained at addition amounts of 2-ADN, 0, 0.05, 0.5, 1, 2 and 5 mM, respectively.

[2] = test system: α-2,6-linked sialylation of recombinant boIFN-τ in TN5 cells; experiment: Lectin blot analysis (HRP-SNA) of sialic acid in recombinant boIFN-τ expressed by TN5 cells; assay type: cell-based, insect (TN5 cells); settings: 2-ADN 0, 0.05, 0.5, 1, 2 and 5 mM; total amount of protein of each lane the same
Method: After TN5 cells were infected with a recombinant baculovirus, they were cultured for 3 days. The supernatant was subjected to Tricine SDS-PAGE performed under reducing conditions (600 ng protein per lane). After the separated protein was transferred on a PVDF membrane, and blocked with PBS containing 1% BSA at 4° C. overnight, the protein was washed with 200 mM Tris-buffered saline (TBS) containing 0.05% Tween 20, and then reacted with 5 μg/ml Sambucus nigra agglutinin labeled with horseradish peroxidase (HRP-SNA, manufactured by EY laboratory) at room temperature for one hour. The carbohydrate reacted was visualized by a Renaissance Western Blot Chemiluminescence Kit (Manufactured by NEN).
To investigate whether or not a sialylated recombinant glycoprotein is produced in insect cells where the GlcNAcase activity is inhibited, the terminal structure of N-glycan of recombinant boIFN-τ was determined by a lectin blot analysis using SNA, which is a lectin capable of recognizing α-2,6-linked sialic acid.

[3] = test system: N-glycosylation of recombinant boIFN-τ in TN5 cells; experiment: SDS-PAGE and Western blot of recombinant boIFN-τ from TN5 cells cultured with tunicamycin; assay type: cell-based, insect (TN5 cells); settings: 1 μg/ml tunicamycin, 3 days; only the 19.5 kD molecule observed
Method: The addition of a sugar chain to a recombinant protein, that is, N-glycosylation, was inhibited by culturing the TN5 cells infected with a recombinant baculovirus in a medium containing 1 μg/ml tunicamycin (manufactured by Sigma Chemical Co.) for 3 days.
Twenty μl of the culture supernatant of TN5 cells cultured for 3 days after infection with a recombinant baculovirus was subjected as a sample to Tricine SDS-PAGE performed under reducing conditions in accordance with a method described in Schagger, H. et al., Anal. Biochem. 166, 368-379 (1987). After electrophoresis, the separated protein was stained with Coomassie brilliant blue (CBB)G-250 or blotted on a polyvinylidene difluoride (PDFV) membrane (manufactured by Millipore Corporation). The protein-transferred membrane was blocked with PBS containing 5% skim milk at 4° C. overnight and allowed to react with a 0.2 μg/ml anti-boIFN-τ monoclonal antibody (manufactured by Katakura Industries) at room temperature for one hour, and further incubated with 2000-fold-diluted HPR-rabbit anti-mouse IgG at room temperature. The antibody bound to the protein was visualized by 3,3′-diaminobenzidine staining. The densities of bands obtained after the CBB staining and Western blotting were quantified by using a densitometer.

Row | Compound | proliferation of cells (TN5 cells) | GlcNAcase activity, dependence on concentration ([1]; 0 to 5 mM 2-ADN) | GlcNAcase activity inhibited ([1]; 5 mM 2-ADN, TN5 cell lysate supernatant, 37° C., one hour) | SNA-reactive band intensity (sialic acid in recombinant boIFN-τ) [2] | N-glycosylation of recombinant boIFN-τ [3]
1 | CC(=O)N[C@H]1CN[C@H](CO)[C@@H](O)[C@@H]1O [2-ADN, 2-acetoamide-1,2-dideoxynojirimycin] | not affected | inhibited by 2-ADN in a concentration-dependent manner | About 80% | increased by adding 2-ADN in a concentration dependent manner | –
2 | tunicamycin | – | – | – | – | blocked
